In patent publication US4623648A, “1-azaxanthone for use as therapeutic agent as an antipyretic, analgesic, anti-inflammatory and bronchodilator” (priority 1981, dated 1986):
Converted amounts (≈) assume the structure as drawn. Read-outs that look alike come from different tables or passages of the source.

Experiments:
rats [1] = assay: D'Amour and Smith test in rats; type: in vivo; details: oral dose of ca. 100 mg/kg, 1 hour before testing
Description: (§1) Sprague-Dawley rats, Swiss mice, California rabbits and mongrel guinea pigs and cats were used. 1-azaxanthone was administered as a suspension in 0.5 % w/v of carboxymethyl-cellulose in distilled water for oral and i.p. administration. When administered i.v. or to the nutrient liquid of the isolated tissues, a solution of the compound in isopropylidenglycerol (15 mg/ml) was used.
"D'Amour and Smith" test in rats (see J. Pharmacol. Exptl. Therap., 1941, 72, 74). An analgesimeter LETICA model 7100 was used. An oral dose of ca. 100 mg/kg of 1-azaxanthone, administered 1 hour before testing produced analgesia in 50% of the animals.

central nervous system = assay: Effect on the central nervous system; type: in vivo, mice and rats
mice [2] = assay: Acetic acid induced writhing in mice; type: in vivo; details: Mus musculus; oral; 95% confidence limits 2.1-3.4
Description: as §1
Acetic acid induced writhing in mice (according to R. Koster et al., Fedn. Proc. 1959, 18, 412).

Guinea pig ileum = Guinea pig ileum in vitro spasmolytic assay; details: Cavia porcellus, read-out: ED50 (dose which inhibits the response of the ileum to the agonist by 50%)
Description: as §1
Guinea pig ileum (according to R. Magnus, Pflugers Arch. Ges. Physiol. 1904, 102, 123). In this "in vitro" assay 1-azaxanthone had the following ED50 with different agonists (dose which inhibits the response of the ileum to the agonists by 50%): […]

rat paw oedema = assay: Carrageenan rat paw oedema; type: in vivo; details: po, per os, 95% confidence limits 6.0-37.3
Description: as §1
Carrageenan rat paw oedema (according to C. A. Winter et al., Proc. Soc. Exptl. Biol. N.Y. 1962, 111, 544).

guinea pig = assay: Inhibition of the bronchoconstrictor response to histamine in guinea pig; type: in vivo; details: 8 mg/kg i.v., 5 μg histamine
Description: as §1
Inhibition of the bronchoconstrictor response to histamine in guinea pig (according to H. Konzett and R. Rossler, Arch. Exptl. Path. Pharmak. 1940, 195, 71). 1-azaxanthone (8 mg/kg i.v.) inhibited the response induced by 5 μg of histamine by 100% at 5 min, 67% at 10 min, 50% at 20 min, and 15% at 30 min after administration.

[3] = Water solubility (general statement); type: physicochemical
rats [4] = assay: Chronic administration to rats (92 days); type: in vivo
Evans blue permeability = Evans blue permeability assay; details: in vivo
rats [5] = assay: Yeast-induced hyperthermia in rats; type: in vivo
Description: as §1
Yeast-induced hyperthermia in rats (according to U. M. Teotino et al., J. Med. Chem. 1963, 6, 248). The test compound was administered by oral route 1 hour before the s.c. injection of the pyrogenic agent.

[6] = tested on: guinea pig tracheal chain; assay: Isolated guinea pig tracheal chain; details: Cavia porcellus, bath nutrient liquid
Description: as §1
Isolated guinea pig tracheal chain (according to J. C. Castillo and E. K. DeBeer, J. Pharmacol. Exptl. Ther. 1947, 90, 104). 1-azaxanthone produced maximum relaxation of the tracheal muscle at a concentration of 20 μg/ml in the bath nutrient liquid. The minimun effective dose was about 5 μg/ml.

rabbits = assay: Lipopolysaccharide hyperthermia in rabbits with established fever; type: in vivo; details: 200 mg/kg i.p.
Description: as §1
Hyperthermia induced in rabbits by i.v. injection of lipopolysaccharide of Escherichia coli (according to C. A. Winter and G. W. Nuss, Toxic. Appl. Pharmacol. 1963, 5, 247). […] The compound was also effective when administered to rabbits with established fever; for example, when 200 mg/kg of 1-azaxanthone were administered i.p. to a group of 5 rabbits from a total of 10 with mean hyperpyrexia of +1.15° C. 2 hours after the lipopolysaccharide injection, the hyperpyrexia of the treated group was +0.7° C. at 2 hours and +0.1° C. at 3 hours, while the hyperpyrexia of the untreated animals was 1.5° C. at 2 hours and 1.15° C. at 3 hours (all periods after administration of the test compound).

mice [7] = assay: Phenyl-p-benzoquinone induced writhing in mice; type: in vivo; details: Mus musculus; oral; 95% confidence limits 6.1-11.8
Description: as §1
Phenyl-p-benzoquinone induced writhing in mice (according to E. A. Siegmund et al., J. Pharmacol. Exptl. Therap. 1957, 119, 453). […] I

granuloma pouch = assay: Granuloma pouch; details: in vivo
[8] = tested on: schistosomiasis infections; details: F. G. Mann, J. A. Reid, J. Chem. Soc. 1952; cited from earlier work

With `O=c1c2ccccc2oc2ncccc12` [1-azaxanthone] the animals with analgesia (rats [1]) was 50%, the “activity on the central nervous system” value (central nervous system; in vivo) was “Clear activity on the central nervous system was not observed” and the signs of depression (central nervous system; mice and rats at high doses) was “some signs of depression”. It also gave an ED50 (mice [2]) of 2.8 mg/kg, an IC50 (Guinea pig ileum; agonist: Acetylcholine) of 14.3 µg/mL (≈ 72.3 µM) and an IC50 (Guinea pig ileum; agonist: BaCl2) of 19.7 µg/mL (≈ 100 µM). It also gave an IC50 (Guinea pig ileum; agonist: Histamine) of 22.9 µg/mL (≈ 116 µM), an IC50 (Guinea pig ileum; agonist: Nicotine) of 27.8 µg/mL (≈ 141 µM) and an ED50 (rat paw oedema) of 21.7 mg/kg. For the same compound, the “inhibition of response induced by histamine” value (from here on “inhibition of response induced”) (guinea pig; 5 min after administration) was 100%, the “inhibition of response induced” value (guinea pig; 10 min after administration) was 67% and the “inhibition of response induced” value (guinea pig; 20 min after administration) was 50%. The “inhibition of response induced” value (guinea pig; 30 min after administration) was 15%, the water solubility [3] was “low water solubility” and the “effect on body weight increase and hematological/serum parameters” value (rats [4]; 25 mg/kg/day oral) was “without statistically significant effect”. The “alteration of parameters compared to control group” value (rats [4]; 100 mg/kg/day oral) was “some of these parameters were altered”, the survival (rats [4]; oral) was “all animals survived” and the “weights of the main organs” value (rats [4]; oral) was “within normal limits”. The “activity in Evans blue permeability assay” value (Evans blue permeability) was “showed activity”, the antipyretic effect (rats [5]; 0.375 mg/kg, 2nd and 3rd hours) was “statistically significant antipyretic effect” and the prevention of hyperthermia (rats [5]; 6.2 mg/kg oral, 4 hours after yeast injection (control increase 1.8° C.)) was “completely prevented the hyperthermia”. For the same compound, the “decrease of hyperthermia with respect to control increase” value (rats [5]; 6.2 mg/kg oral, 6 hours after yeast injection (control total increase 1.4° C.)) was 0.8 °C, the EC (maximum relaxation) ([6]; read-out: concentration producing maximum relaxation of the tracheal muscle) was 20 µg/mL and the minimal effective concentration ([6]; read-out: minimum effective dose (tracheal relaxation)) was about 5 µg/mL. For the same compound, the “hyperpyrexia of the treated group” value (rabbits; 2 hours after administration (untreated 1.5° C.)) was “+0.7 °C”, the “hyperpyrexia of the treated group” value (rabbits; 3 hours after administration (untreated 1.15° C.)) was “+0.1 °C” and the ED50 (mice [7]) was 8.9 mg/kg. The “activity in granuloma pouch” value (granuloma pouch) was “showed activity” and the “effect on schistosomiasis infections” value [8] was “did not show any "significant effect on schistosomiasis infections"”.
